Assays:
Lygus hesperus = test: Test 1 A. Contact/Residue Contact, adult bugs in cages sprayed, mortality; type: in vivo
Description: Lygus hesperius was the subject in this test. Adult bugs in cages were sprayed at 250 l/h. There were four replicates of 10 insects for 5 rates of each formulation. Mortality assessments were made at 1, 2, 3, 4, 5, and 6 DAT.

Heliothis virescens = test: Test 1 B. Foliar Persistence, neonate larvae on disks of sprayed detached cotton leaves, mortality; type: in vivo; details: cotton leaf disks

CCOP(=S)(OCC)Oc1nc(Cl)c(Cl)cc1Cl [Chlorpyrifos technical, chlorpyrifos]
LC50 1DAT (Lygus hesperus; mortality at 1 DAT, sprayed at 250 l/h): 313 ppm | LC50 2DAT (Lygus hesperus; mortality at 2 DAT, sprayed at 250 l/h): 310 ppm | LC50 3DAT (Lygus hesperus; mortality at 3 DAT, sprayed at 250 l/h): 311 ppm | LC50 4DAT (Lygus hesperus; mortality at 4 DAT, sprayed at 250 l/h): 313 ppm | LC50 5DAT (Lygus hesperus; mortality at 5 DAT, sprayed at 250 l/h): 313 ppm | LC50 6DAT (Lygus hesperus; mortality at 6 DAT, sprayed at 250 l/h): 325 ppm | LC50 (Lygus hesperus; previous test results, Lygus hesperus contact/residue contact): ~300 ppm | LC50 Total (Heliothis virescens; Total over 1-3 DAT): 10.2 ppm | LC50 1DAT (Heliothis virescens; mortality at 1 DAT): 9.8 ppm | LC50 2DAT (Heliothis virescens; mortality at 2 DAT): 8.6 ppm | LC50 3DAT (Heliothis virescens; mortality at 3 DAT): 12.2 ppm

From patent US6544540B2, “Base-triggered release microcapsules” (priority 1998, dated 2003)
